Test results published in US6355799B1, “Substituted benzene compounds, process for their preparation, and herbicidal and defoliant compositions containing them” (ISK Americas Incorporated, priority 1997, dated 2002).

Legend:
Assay type in all cases: in vivo
[1] = test system: lambsquarters (Chenopodium album, CHEAL); test: Post-emerge test, greenhouse herbicide activity screening; conditions: post-emerge, 14 days after application, rating scale 0-100
How it was run: (§1)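 Herbicidal damage is scored 0 (none) to 100 (complete plant death) two weeks after a simulated field spray. Rates span 15–1000 g ai/ha, delivered in acetone at 187 l/ha. For post-emergence treatments, plants have 2–3 leaves and the spray carries 0.25% v/v non-ionic surfactant.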

[2] = test system: green foxtail (Setaria viridis, SETVI); test: as above; conditions: post-emerge, 14 days after application, rating scale 0-100
How it was run: as §1

[3] = test system: large crabgrass (Digitaria sanguinalis, DIGSA); test: as above; conditions: post-emerge, 14 days after application, rating scale 0-100
How it was run: as §1

[4] = test system: sicklepod (Cassia obtusifolia, CASOB); test: as above; conditions: post-emerge, 14 days after application, rating scale 0-100
How it was run: as §1

[5] = test system: barnyardgrass (Echinochloa crus-galli, ECHCG); test: as above; conditions: post-emerge, 14 days after application, rating scale 0-100
How it was run: as §1

[6] = test system: redroot pigweed (Amaranthus retroflexus, AMARE); test: as above; conditions: post-emerge, 14 days after application
How it was run: as §1

[7] = test system: velvetleaf (Abutilon theophrasti, ABUTH); test: as above; conditions: post-emerge, 14 days after application, rating scale 0-100
How it was run: as §1

[8] = test system: johnsongrass (Sorghum halepense, SORHA); test: as above; conditions: post-emerge, 14 days after application, rating scale 0-100
How it was run: as §1

[9] = test system: ivyleaf morningglory (Ipomoea hederacea, IPOHE); test: as above; conditions: post-emerge, 14 days after application, rating scale 0-100
How it was run: as §1

[10] = test system: redroot pigweed (Amaranthus retroflexus, AMARE); test: Pre-emerge test, greenhouse herbicide activity screening; conditions: pre-emerge, 14 days after application, rating scale 0-100
How it was run: as §1

[11] = test system: field corn (Zea mays L., var. Dekalb 535, CORN); test: Post-emerge test, crop safety; conditions: post-emerge, 14 days after application, rating scale 0-100
How it was run: (§2)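 Applied at 15–1000 g ai/ha from acetone in 187 l/ha spray volume. Post-emergence applications included 0.25% v/v non-ionic surfactant and reached plants sown 8–21 days before. Pre-emergence applications were incorporated by surface watering. Efficacy or crop damage was rated on a 0–100 scale after 14 days.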

[12] = test system: upland rice (Oryza sp., var. Tebonnet, RICE); test: Post-emerge test, crop safety; conditions: post-emerge, 14 days after application, rating scale 0-100
How it was run: as §2

[13] = test system: lambsquarters (Chenopodium album, CHEAL); test: Pre-emerge test, greenhouse herbicide activity screening; conditions: pre-emerge, 14 days after application, rating scale 0-100
How it was run: as §2

[14] = test system: green foxtail (Setaria viridis, SETVI); test: as above; conditions: pre-emerge, 14 days after application, rating scale 0-100
How it was run: as §2

[15] = test system: large crabgrass (Digitaria sanguinalis, DIGSA); test: as above; conditions: pre-emerge, 14 days after application, rating scale 0-100
How it was run: as §2

[16] = test system: sicklepod (Cassia obtusifolia, CASOB); test: as above; conditions: pre-emerge, 14 days after application, rating scale 0-100
How it was run: as §2

[17] = test system: barnyardgrass (Echinochloa crus-galli, ECHCG); test: as above; conditions: pre-emerge, 14 days after application, rating scale 0-100
How it was run: as §2

[18] = test system: velvetleaf (Abutilon theophrasti, ABUTH); test: as above; conditions: pre-emerge, 14 days after application, rating scale 0-100
How it was run: as §2

[19] = test system: johnsongrass (Sorghum halepense, SORHA); test: as above; conditions: pre-emerge, 14 days after application, rating scale 0-100
How it was run: as §2

[20] = test system: ivyleaf morningglory (Ipomoea hederacea, IPOHE); test: as above; conditions: pre-emerge, 14 days after application, rating scale 0-100
How it was run: as §2

[21] = test system: field corn (Zea mays L., var. Dekalb 535, CORN); test: Pre-emerge test, crop safety; conditions: pre-emerge, 14 days after application, rating scale 0-100
How it was run: (§3)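 Compounds in acetone were track-sprayed at 187 l/ha, 15–1000 g ai/ha, onto sandy loam pots. Pre-emerge seeds were sown one day before spraying, with surface watering afterwards. Post-emerge plants were at the 2–3 leaf stage and sprayed with 0.25% v/v non-ionic surfactant. Injury was rated 0–100 at 14 days.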

[22] = test system: upland rice (Oryza sp., var. Tebonnet, RICE); test: Pre-emerge test, crop safety; conditions: pre-emerge, 14 days after application, rating scale 0-100
How it was run: as §3

COc1c(Cl)cc(F)c(-n2c(=O)cc(C(F)(F)F)n(C)c2=O)c1NN=CCc1ccccc1 [15-15]
Post-emerge Herbicidal Activity CHEAL (phytotoxicity rating) ([1]; 63 g ai/ha): 100 | Post-emerge Herbicidal Activity CHEAL (phytotoxicity rating) ([1]; 250 g ai/ha): 100 | Post-emerge Herbicidal Activity SETVI (phytotoxicity rating) ([2]; 63 g ai/ha): 40 | Post-emerge Herbicidal Activity SETVI (phytotoxicity rating) ([2]; 250 g ai/ha): 95 | Post-emerge Herbicidal Activity DIGSA (phytotoxicity rating) ([3]; 63 g ai/ha): 40 | Post-emerge Herbicidal Activity DIGSA (phytotoxicity rating) ([3]; 250 g ai/ha): 100 | Post-emerge Herbicidal Activity CASOB (phytotoxicity rating) ([4]; 63 g ai/ha): 80 | Post-emerge Herbicidal Activity CASOB (phytotoxicity rating) ([4]; 250 g ai/ha): 100 | Post-emerge Herbicidal Activity ECHCG (phytotoxicity rating) ([5]; 63 g ai/ha): 30 | Post-emerge Herbicidal Activity ECHCG (phytotoxicity rating) ([5]; 250 g ai/ha): 100 | Post-emerge Herbicidal Activity AMARE (phytotoxicity rating) ([6]; 63 g ai/ha, rating scale 0-100 (0 no damage, 100 complete death)): 100 | Post-emerge Herbicidal Activity AMARE (phytotoxicity rating) ([6]; 250 g ai/ha, rating scale 0-100): 100 | Post-emerge Herbicidal Activity ABUTH (phytotoxicity rating) ([7]; 63 g ai/ha): 100 | Post-emerge Herbicidal Activity ABUTH (phytotoxicity rating) ([7]; 250 g ai/ha): 100 | Post-emerge Herbicidal Activity SORHA (phytotoxicity rating) ([8]; 63 g ai/ha): 30 | Post-emerge Herbicidal Activity SORHA (phytotoxicity rating) ([8]; 250 g ai/ha): 99 | Post-emerge Herbicidal Activity IPOHE (phytotoxicity rating) ([9]; 63 g ai/ha): 90 | Post-emerge Herbicidal Activity IPOHE (phytotoxicity rating) ([9]; 250 g ai/ha): 100 | phytotoxicity rating AMARE ([10]; 63 g ai/ha): 100 | phytotoxicity rating AMARE ([10]; 250 g ai/ha): 100 | Post-emerge Herbicidal Activity CORN (crop damage rating) ([11]; 63 g ai/ha): 45 | Post-emerge Herbicidal Activity CORN (crop damage rating) ([11]; 250 g ai/ha): 90 | Post-emerge Herbicidal Activity RICE (crop damage rating) ([12]; 63 g ai/ha): 70 | Post-emerge Herbicidal Activity RICE (crop damage rating) ([12]; 250 g ai/ha): 95 | phytotoxicity rating CHEAL ([13]; 63 g ai/ha): 100 | phytotoxicity rating CHEAL ([13]; 250 g ai/ha): 100 | phytotoxicity rating SETVI ([14]; 63 g ai/ha): 100 | phytotoxicity rating SETVI ([14]; 250 g ai/ha): 100 | phytotoxicity rating DIGSA ([15]; 63 g ai/ha): 100 | phytotoxicity rating DIGSA ([15]; 250 g ai/ha): 100 | phytotoxicity rating CASOB ([16]; 63 g ai/ha): 100 | phytotoxicity rating CASOB ([16]; 250 g ai/ha): 100 | phytotoxicity rating ECHCG ([17]; 63 g ai/ha): 100 | phytotoxicity rating ECHCG ([17]; 250 g ai/ha): 100 | phytotoxicity rating ABUTH ([18]; 63 g ai/ha): 100 | phytotoxicity rating ABUTH ([18]; 250 g ai/ha): 100 | phytotoxicity rating SORHA ([19]; 63 g ai/ha): 100 | phytotoxicity rating SORHA ([19]; 250 g ai/ha): 100 | phytotoxicity rating IPOHE ([20]; 63 g ai/ha): 100 | phytotoxicity rating IPOHE ([20]; 250 g ai/ha): 100 | phytotoxicity rating CORN ([21]; 63 g ai/ha): 95 | phytotoxicity rating CORN ([21]; 250 g ai/ha): 100 | phytotoxicity rating RICE ([22]; 63 g ai/ha): 95 | phytotoxicity rating RICE ([22]; 250 g ai/ha): 100
